What was measured:
red cells = red cells dried in proline plus sugar 10% (w/v), stored at room temperature for 3 months
Method: Fresh blood was withdrawn by venepuncture from healthy volunteers into the anti-coagulant EDTA (final concentration 5mM). The blood was centifuged and then washed 3 to 4 times in a potassium free buffered salt solution which contains the following ingredients: Table 5
The cells were then resuspended finally at 50% and incubated for 60 minutes at 4°C, and aliquots were then dried at ambient temperature (evaporation cooled the samples) under a vacuum of less than 5 x 10^-2 mbar (50 Pa) for approximately 16 hours.
The red cells were dried in aliquots of 250µl and the rehydration was inititated by the addition of 250µl of solution 1 to the dry aliquots. The cells were allowed to rehydrate slowly, and when in solution, 500µl of solution 2 was added. At this stage the cells were viewed under the microscope and the number of apparently intact cells was counted. A further 1 ml of solution 2 was then added and the cells were then centrifuged at 5,220 x g for 5 minutes. The supernatant was removed and the cells were resuspended in solution 2. For typing the red cell antigenic status, an equal volume of the red cells in solution 2 was added to an equal volume of an antibody mixed 1 : 1 with solution 1.
The concentration of each sugar used was 10% (w/v). […]

erythrocytes [1] = assay: Freeze-dried blood rehydrated with solution A and PBS; intact cells assessed by fluorescein dye exclusion (Example 4); format: cell-based
Method: The solutions were incubated at 37°C for 2 hours and then frozen onto the walls of a […] in a thin shell by first immersing the flask while rotating it, in a mixture of solid carbon dioxide and methylated spirits. […] The blood was dried under this vacuum for at least 16 hours. […] The dry blood was rehydrated with 1 volume of solution A (see Example 2), and when all the dry blood was resuspended, an equivalent volume PBS was added.

erythrocytes [2] = assay: Freeze-dried erythrocytes rehydrated with solution A, then PBS; integrity assessed microscopically (Example 2); format: cell-based; details: then equivalent amount of PBS
Method: After the dehydrated samples were resuspended fully, an equivalent amount of PBS was added, and the integrity of the erythrocytes were assessed microscopically.

erythrocytes [3] = assay: Erythrocytes incubated in an organic osmolyte, freeze-dried, rehydrated in PBS with 40% glucopyranosyl sorbitol; intact erythrocytes counted microscopically (Example 1); format: cell-based; details: for % Intact Cells: incubated 2 hours at 37°C, freeze-dried; for freeze drying of erythrocytes: result in words
Method: Whole blood was collected by venepuncture into the anticoagulant EDTA (used at a final concentration of 5mM), and then incubated for 2 hours at 37°C in one of the following osmolytes: proline, carnitine and betaine, over a range of concentrations. The samples were then frozen into a thin shell on the walls of the vessel and then placed under vacuum for drying. The vacuum was typically less than 25 µm Hg ([…]), and the samples were held under this vacuum for approxiamtely 16 hours.
The freeze-dried samples were rehydrated by resuspending some of the dry material in an hypertonic solution consisting of phosphate buffered saline (PBS) containing glucopyranosyl sorbitol at a concentration of 40%. The samples were then assesed microscopically to determine the number of intact erythrocytes.

blood cells = assay: Vacuum-drying of blood cells in trehalose without organic osmolyte, then rehydration; format: cell-based; details: result in words; vacuum-drying in the absence of an organic osmolyte
platelets = assay: Freeze-drying of platelets from Platelet Rich Plasma and recovery of whole platelets on rehydration (Example 5); format: cell-based; details: result in words
Method: Blood was collected into the anti-coagulant, acid-citrate-dextrose, and the mixture then centrifuged at approximately 1100 x g for three minutes to harvest Platelet Rich Plasma.
Aliquots of the Platelet Rich Plasma were then incubated in the presence of varying concentrations of proline, carnitine and trehalose on their own, and proline and carnitine in combination with trehalose, as well as a test sample in 7.5% NaCl. All samples were incubated for 37°C for 2 hours on a slowly moving rotary mixer, before freezing and drying.
The dehydrated samples were rehydrated with either 1 volume of water, or 1 volume of water containing 2% carnitine. […] Results obtained when rehydrating with water in the presence of 2% carnitine were generally about 25% better than those achieved with water alone.

SMILES | % apparently intact cells (red cells) [%] | % Intact Cells (erythrocytes [1]) [%] | % Intact Cells (erythrocytes [2]) [%] | % Intact Cells (erythrocytes [3]; Final Concentration 5) [%] | % Intact Cells (erythrocytes [3]; Final Concentration 10) [%] | % Intact Cells (erythrocytes [3]; Final Concentration 15) [%] | % Intact Cells (erythrocytes [3]; Final Concentration 20) [%] | freeze drying of erythrocytes (erythrocytes [3]) | cells on rehydration (blood cells) | platelets recovered on reconstitution (platelets)
O=C(O)[C@@H]1CCCN1 [Proline, proline] | 67 | 78 | 79 | 0 | 62 | 81 | < 1 | particularly successful | – | –
C[N+](C)(C)CC(=O)O [Betaine, betaine] | – | – | – | 0 | 35 | < 5 | 0 | – | – | –
C[N+](C)(C)CC(O)CC(=O)[O-] (stereo not drawn) [Carnitine, carnitine] | – | 70 | 87 | 0 | < 1 | 75 | 62 | particularly successful | – | –
OC[C@H]1O[C@H](O[C@H]2O[C@H](CO)[C@@H](O)[C@H](O)[C@H]2O)[C@H](O)[C@@H](O)[C@@H]1O [trehalose] | – | – | – | – | – | – | – | – | only a very small percentage of cells | almost exclusively 'ghost' platelets

From patent EP0594651B1, “DRIED BLOOD CELLS AND METHOD OF PREPARATION” (QUADRANT HOLDINGS CAMBRIDGE LIMITED, priority 1991, dated 1993)
